Assays:
hGPR40 [1] = target: T1, hGPR40 (Homo sapiens, UniProt O14842); assay: FDSS-based intracellular calcium assay; type: cell-based; parameters: 3xFLAG; expressed in transfected cells; conditions: intracellular Ca2+ response, cells expressing GPR40
Experimental: FDSS-Based Intracellular Calcium Assay
Compounds are dissolved in DMSO and diluted to desired concentrations with assay buffer and added to the cells as 3× solution (20 μL per well). Run fluorescence/luminescence reader FDSS (Hamamatsu) to read intracellular Ca^2+ response.

hGPR40 [2] = target: T1, hGPR40; assay: GPR40 IP-One HTRF assay in HEK293/GPR40 inducible cell lines; type: cell-based; parameters: expressed in transfected cells; conditions: HEK293 cells with tetracycline-inducible human GPR40; read-out: hGPR40 IP1 EC50
Experimental: GPR40 IP-One HTRF Assays in HEK293/GPR40 Inducible Cell Lines
Human, mouse and rat GPR40-mediated intracellular IP-One HTRF assays were established using human embryonic kidney HEK293 cells stably transfected with a tetracycline-inducible human, mouse or rat GPR40 receptor. Cells were routinely cultured in growth medium containing DMEM (Gibco Cat. #12430-047), 10% qualified FBS (Sigma, Cat. #F2442), 200 μg/ml hygromycin (Invitrogen, Cat. #16087-010) and 1.5 μg/ml blasticidin (Invitrogen, Cat. #R210-01). About 12-15 million cells were passed into a T175 tissue culture flask (BD FALCON® 353112) with growth medium and incubated for 16-18 hours (overnight) at 370 C with 5% CO2. The next day, assay medium was exchanged with growth medium containing 1000 ng/mL of tetracycline (Fluka Analytical, Cat. #87128) to induce GPR40 expression for 18-24 hours at […] incubator with 5% CO2. After induction, the cells were washed with PBS (Gibco, Cat. #14190-036) and detached with Cell Stripper (CELLGRO®, Cat. #25-056-CL). 10-20 mL growth medium were added to the flask and cells were collected in 50 mL tubes (FALCON®, Cat. #352098) and spun at 1000 RPM for 5 minutes. Culture medium was aspirated and the cells were resuspended in 10 mL of 1× IP-One Stimulation Buffer from the Cisbio IP-One kit (Cisbio, Cat. #62IPAPEJ). The cells were diluted to 1.4×10^6 cells/mL in Stimulation Buffer.
Test compounds were 3-fold, 11-point serially diluted in DMSO in a REMP assay plate (Matrix Cat. #4307) by BIOCEL® (Agilent). The compounds were transferred into an Echo plate (LABCYTE, Cat. #LP-0200) and […] of diluted compounds were transferred to an assay plate (proxi-plate from Perkin Elmer, Cat. #6008289) by Echo acoustic nano dispenser (LABCYTE, model ECHO550). 14 μL of the diluted cells were then added to the assay plate by Thermo (SN 836 330) CombiDrop and incubated at room temperature for 45 minutes. Then 3 μL of IP1 coupled to dye D2 from the Cisbio IP-One kit were added to the assay plate followed by 3 μL of Lumi4TM-Tb cryptate K from the kit. The plate was further incubated at room for 1 hour before reading on the Envision (Perkin Elmer Model2101) with an HTRF protocol. Activation data for the test compound over a range of concentrations was plotted as percentage activation of the test compound (100%=maximum response). After correcting for background [(sample read-mean of low control)/(mean of high control−mean of low control)](low control is DMSO without any compound), EC50 values were determined. The EC50 is defined as the concentration of test compound which produces 50% of the maximal response and was quantified using the 4 parameter logistic equation to fit the data.

C57BL6 mice = assay: Acute oral glucose tolerance test; type: in vivo; conditions: % change in glucose AUC (0-180 min) from vehicle, 0.3 mg/kg oral; for Acute oral glucose tolerance: co-administered with glucose 2 g/kg
Experimental: Acute Oral Glucose Tolerance Test
Ten week old C57BL6 mice were housed individually and fasted for 5 hours on the day of study. Tail vein sampling was performed from nicked tails to obtain plasma samples. Baseline plasma samples were taken at t=0. Mice were orally treated with vehicle or compounds co-administered with glucose (2 g/kg). Sampling thereafter from tails of treated mice at 20, 40, 60, 120 and 180 min provided data used for generating glucose excursion curves from which 0-180 min blood glucose excursion profiles were generated. The area under the curve (AUC) allowed for assessment of glucose lowering by compound treatments. Blood samples were collected in EDTA-treated tubes (MICROVETTE® CB300, Sarstedt, Numbrecht, Germany), stored on ice and spun @ 6000 rpm for 10 minutes. Plasma glucose was analyzed on the same day using an AU680 Clinical Chemistry Analyzer (Beckman Coulter, Brea, Calif.). Statistical analysis is a one way ANOVA with Dunnett's post hoc test or two-way student's t test where appropriate. P values less than 0.05 were considered statistically significant.

T1 sequence (O14842 whole entry): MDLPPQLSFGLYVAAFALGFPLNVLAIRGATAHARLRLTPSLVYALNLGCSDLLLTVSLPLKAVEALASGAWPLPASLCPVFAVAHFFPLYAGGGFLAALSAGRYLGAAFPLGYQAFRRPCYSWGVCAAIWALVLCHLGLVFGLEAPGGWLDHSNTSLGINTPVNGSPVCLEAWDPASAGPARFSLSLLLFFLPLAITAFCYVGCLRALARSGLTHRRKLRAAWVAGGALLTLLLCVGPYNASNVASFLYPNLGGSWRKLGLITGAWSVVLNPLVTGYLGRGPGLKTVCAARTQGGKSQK

With `CCOc1ccc(F)c(N2CC[C@@H](Oc3ccc(N4N=C(C(F)(F)F)[C@@H](C)[C@@H]4CC(=O)O)cc3)[C@H](C)C2)c1` [Example 29, 2-((4S,5S)-1-(4-(((3R,4R)-1-(5-Ethoxy-2-fluorophenyl)-3-methylpiperidin-4-yl)oxy)phenyl)-4-methyl-3-(trifluoromethyl)-4,5-dihydro-1H-pyrazol-5-yl)acetic acid] the EC50 (hGPR40 [1]) was 0.154 µM, the EC50 (hGPR40 [2]) was 0.011 µM and the “Acute oral glucose tolerance (average of two experiments)” value (C57BL6 mice; average of two experiments) was −52%.

`COc1ccc(F)c(N2CCC(Oc3ccc(N4N=C(C(F)(F)F)[C@@H](C)[C@@H]4CC(=O)O)cc3)CC2)c1` [Example 1, 2-((4S,5S)-1-(4-((1-(2-Fluoro-5-methoxyphenyl)piperidin-4-yl)oxy)phenyl)-4-methyl-3-(trifluoromethyl)-4,5-dihydro-1H-pyrazol-5-yl)acetic acid] was tested, and the EC50 (hGPR40 [1]) was 0.114 µM, the EC50 (hGPR40 [2]) was 0.017 µM and the “Acute oral glucose tolerance” value (C57BL6 mice) was −47%.

For `CCOc1ccc(F)c(N2CCC(Oc3ccc(N4N=C(c5ccc(C#N)cc5)[C@@H](C)[C@@H]4CC(=O)O)cc3)CC2)c1` [Example 93, 2-((4S,5S)-3-(4-Cyanophenyl)-1-(4-((1-(5-ethoxy-2-fluorophenyl)piperidin-4-yl)oxy)phenyl)-4-methyl-4,5-dihydro-1H-pyrazol-5-yl)acetic acid], the EC50 (hGPR40 [1]) was 0.082 µM, the EC50 (hGPR40 [2]) was 0.007 µM and the “Acute oral glucose tolerance” value (C57BL6 mice) was −56%.

For `COc1cc(N2CCC(Oc3ccc(N4N=C(C(F)(F)F)[C@@H](C)[C@@H]4CC(=O)O)cc3)CC2)c(Cl)cn1` [Example 77, 2-((4S,5S)-1-(4-((1-(5-Chloro-2-methoxypyridin-4-yl)piperidin-4-yl)oxy)phenyl)-4-methyl-3-(trifluoromethyl)-4,5-dihydro-1H-pyrazol-5-yl)acetic acid], the EC50 (hGPR40 [1]) was 0.11 µM, the EC50 (hGPR40 [2]) was 0.02 µM and the “Acute oral glucose tolerance” value (C57BL6 mice) was −38%.

In the case of `COc1cc(N2CC[C@@H](Oc3ccc(N4N=C(C(F)(F)F)[C@@H](C)[C@@H]4CC(=O)O)cc3)[C@H](C)C2)c(Cl)cn1` (single isomer, unassigned) [Example 81, Isomer 2 (neutral form)], the EC50 (hGPR40 [1]) is reported as 0.071 µM, the EC50 (hGPR40 [2]) is reported as 0.009 µM and the “Acute oral glucose tolerance” value (C57BL6 mice) is reported as −54%.

For `CCOc1ccc(F)c(N2CCC(Oc3ccc(N4N=C(C(F)(F)F)[C@@H](C)[C@@H]4CC(=O)O)cc3)C(CC)C2)c1` (single isomer, unassigned) [Example 25 (Isomer 2)], the EC50 (hGPR40 [1]) was 0.113 µM, the EC50 (hGPR40 [2]) was 0.021 µM and the “Acute oral glucose tolerance” value (C57BL6 mice) was −38%.

Source: patent US9133163B2, “Dihydropyrazole GPR40 modulators” (Bristol-Myers Squibb Company, priority 2012, dated 2015)
